The text below walks through data of article PMC4669708 (Cell Death & Disease, 2015).

What is called EC50 is the concentration needed to bring the measured effect to its halfway point.

For one assay, the target named is RIPK3 (Homo sapiens, UniProt Q9Y572). Put plainly: Recombinant kinase assay. The class given is biochemical. Also noted: purchased Signalchem R09-10G. Here is the method: (§1) Recombinant RIPK1 or RIPK3 protein was incubated with the substrate MBP in kinase assay buffer (40 mM Tris-HCl pH 7.5, 10 mM MgCl2 and 1 mM DTT) in presence of 50 μM ATP, 5 μCi [γ-32 P]ATP and the indicated inhibitors in a total volume of 20 μl. […] The terminated reactions were spotted onto a SAM2 Biotin Capture membrane (Promega) and further processed according to the manufacturer's instructions. […] Data were normalized to a DMSO-treated control sample. For autoradiography, the reactions were stopped by addition of 5 μl 4x Laemmli buffer and incubated for 5 min at 95 °C.

In assay [1] the test system is FADD-deficient Jurkat cells. Description: TNF-α-induced necroptosis, cell viability (CellTiter Glo). The class given is cell-based, human. As to conditions: for EC50: CellTiter Glo, read-out: EC50 for inhibiting necroptosis; for prevention of necroptotic cell death: dose range, Figure 2a, b. As to the method:
(§2) Cells were seeded in 12-, 24- or 96-well plates at proper cell density. For necroptosis or apoptosis assays, cells were incubated with the indicated compound combinations at concentrations stated for 14–24 h. Smac mimetic and z-VAD-FMK were added 30–60 min before treatment with TNF-α, FasL or TRAIL. Cell viability was determined using CellTiter Glo Luminescent Cell Viability Assay (Promega, Fitchburg, WI, USA) according to the manufacturer's instructions. Luminescence was recorded with a SpectraMax M5Multimode plate reader (Molecular Devices, Sunnyvale, CA, USA). For flow cytometry-based determination of viability, cells were harvested, collected by centrifugation, washed once and resuspended in staining buffer (1 × PBS, 10% FBS). Cells were incubated with 0.5 μg/ml PI for 10 min at room temperature (RT) in the dark. Flow cytometric analyses were performed on an LSR Fortessa (BD Biosciences) and analyzed with FlowJo software version 7.6.3 (Tree Star Inc, Ashland, OR, USA). Cell size was evaluated by forward scatter. PI-negative normal-sized cells were considered living and data were normalized to values of untreated controls.
The compounds were transferred into drug plates by acoustic droplet ejection using an Echo 520 liquid handler (LABCYTE, Sunnyvale, CA, USA). Necroptosis was induced in FADD-deficient Jurkat cells by addition of 10 ng/ml TNF-α immediately before seeding onto drug plates at a density of 1x10^4 cells/well. After 16 h incubation, cell viability was determined using CellTiter Glo Luminescent Cell Viability Assay according to manufacturer's instructions. Data analysis was performed by calculating a percentage of control to normalize for variability across different plates. The signal for the negative control DMSO wells was set to 0%, whereas the wells containing the positive control Nec-1 were put to 100% for each plate individually.
Background: ATP-based viability assays read luminescence as a measure of living cells.

Assay [2] deals with HT-29 cells. Description: TNF-α/Smac mimetic/z-VAD-FMK (TSZ)-induced necroptosis, cell viability. The assay is classed as cell-based, human. The following applies: for rescue of TSZ-induced necroptotic cell death: compounds 1 μM, 20 ng/ml TNF-α, 500 nM Smac mimetic, 20 μM z-VAD overnight. As to the method:
as §2

A further assay deals with HT-29 MLKL S358D cells. Put plainly: Cell death driven by doxycycline-induced MLKL S358D expression. As to conditions: 2 μg/ml doxycycline overnight; 10 μM NSA, 0.5 μM ponatinib. The class given is cell-based, human. As to the method: as §2, with “controls. For detection of apoptosis, cells were resuspended in Annexin V Binding Buffer (BioLegend, San Diego, CA, USA) and stained with 0.5 μg/ml PI and Alexa Fluor 647 Annexin V (BioLegend) according to manufacturer's instructions.” for “controls.”

For the next assay, the target named is T1, recombinant RIPK1 (Homo sapiens, UniProt Q13546).
T1 construct: purchased Signalchem R07-10G
Put plainly: Recombinant kinase assay. The assay is classed as biochemical. The following applies: 50 μM ATP; Supplementary Figure 4b. As to the method: as §1

The next assay deals with Jurkat E6.1 cells. Description: FasL-induced apoptosis, cell viability. The class given is cell-based. As to conditions: 100 ng/ml human FasL, 24 h; 0.5 μM ponatinib, 5 μM pazopanib. As to the method:
as §2, with “controls. For detection of apoptosis, cells were resuspended in Annexin V Binding Buffer (BioLegend, San Diego, CA, USA) and stained with 0.5 μg/ml PI and Alexa Fluor 647 Annexin V (BioLegend) according to manufacturer's instructions.” for “controls.”

The subject of assay [3] is HT-29 cells. Description: TRAIL- or FasL-induced necroptosis with Smac mimetic and z-VAD. The assay is classed as cell-based, human. The following applies: 0.5 μM ponatinib, 5 μM pazopanib. Here is the method: as §2, with “controls. For detection of apoptosis, cells were resuspended in Annexin V Binding Buffer (BioLegend, San Diego, CA, USA) and stained with 0.5 μg/ml PI and Alexa Fluor 647 Annexin V (BioLegend) according to manufacturer's instructions.” for “controls.”

In a further assay the test system is 3T3-SA cells. Description: TNF-α/z-VAD (TZ)-induced necroptosis. The following applies: Supplementary Figures 3a, b. The assay is classed as cell-based, murine. As to the method:
as §2, with “controls. For detection of apoptosis, cells were resuspended in Annexin V Binding Buffer (BioLegend, San Diego, CA, USA) and stained with 0.5 μg/ml PI and Alexa Fluor 647 Annexin V (BioLegend) according to manufacturer's instructions.” for “controls.”

RIPK3, sequence (Q9Y572 whole entry): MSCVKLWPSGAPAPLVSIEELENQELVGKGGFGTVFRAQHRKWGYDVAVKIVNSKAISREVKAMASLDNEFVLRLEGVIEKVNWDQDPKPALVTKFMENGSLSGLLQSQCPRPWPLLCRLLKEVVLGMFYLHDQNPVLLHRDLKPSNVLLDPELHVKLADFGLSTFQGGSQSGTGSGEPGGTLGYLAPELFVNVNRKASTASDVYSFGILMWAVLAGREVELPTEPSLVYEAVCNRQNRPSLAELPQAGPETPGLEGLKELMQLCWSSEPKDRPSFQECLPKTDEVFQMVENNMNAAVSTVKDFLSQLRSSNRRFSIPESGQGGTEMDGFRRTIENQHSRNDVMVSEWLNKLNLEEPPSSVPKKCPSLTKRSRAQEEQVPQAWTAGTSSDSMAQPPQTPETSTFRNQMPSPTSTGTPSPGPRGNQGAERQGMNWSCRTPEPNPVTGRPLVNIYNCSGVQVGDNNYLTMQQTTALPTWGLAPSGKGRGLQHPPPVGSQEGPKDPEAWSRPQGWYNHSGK
T1 sequence (Q13546 1-327 limits assumed): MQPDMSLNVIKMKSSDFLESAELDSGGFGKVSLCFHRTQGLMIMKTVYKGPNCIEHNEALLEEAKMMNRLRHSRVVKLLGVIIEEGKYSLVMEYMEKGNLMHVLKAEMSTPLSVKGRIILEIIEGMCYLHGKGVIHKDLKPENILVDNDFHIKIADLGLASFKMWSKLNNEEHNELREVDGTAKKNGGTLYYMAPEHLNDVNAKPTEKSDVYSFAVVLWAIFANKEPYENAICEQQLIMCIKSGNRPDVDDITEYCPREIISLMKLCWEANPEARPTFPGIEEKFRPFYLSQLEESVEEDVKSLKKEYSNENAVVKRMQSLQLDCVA

As to `CN1C(=O)NC(Cc2c[nH]c3c(Cl)cccc23)C1=O` (stereo not shown) [Nec-1s, 7-Cl-O-Nec-1], the RIPK3 autophosphorylation entry at RIPK3 (autoradiography, Supplementary Figure 4c) is given as “showed no effect”. In assay [1] (10 ng/ml TNF-α overnight), the EC50 turned out to be 238 nM.

Consider `Cc1ccc(NC(=O)c2ccc(CN3CCN(C)CC3)cc2)cc1Nc1nccc(-c2cccnc2)n1` [imatinib], for which the “rescue of TSZ-induced necroptotic cell death” value in the assay with HT-29 cells [2] is “neither of the other four BCR-ABL inhibitors nor vandetanib did”. For the same molecule, in assay [1] (10 ng/ml TNF-α overnight), the “prevention of necroptotic cell death” value is “none of the other drugs prevented necroptotic cell death”.

For the molecule `COc1nccnc1NS(=O)(=O)c1ccc(NC(=O)/C=C/c2ccc([N+](=O)[O-])s2)cc1` [NSA, necrosulfonamide], the “block of cell death driven by MLKL S358D expression” value in the assay on HT-29 MLKL S358D cells is given as “could be blocked”.

With `Cc1cn(-c2cc(NC(=O)c3ccc(C)c(Nc4nccc(-c5cccnc5)n4)c3)cc(C(F)(F)F)c2)cn1` [nilotinib], the “rescue of TSZ-induced necroptotic cell death” value in the assay with HT-29 cells [2] is “neither of the other four BCR-ABL inhibitors nor vandetanib did”. The “prevention of necroptotic cell death” value in assay [1] (10 ng/ml TNF-α overnight) is reported as “none of the other drugs prevented necroptotic cell death”.

In the case of “5-[[4-[(2,3-dimethyl-2H-indazol-6-yl)methylamino]-2-pyrimidinyl]amino]-2-methyl-b enzenesulfonamide [pazopanib]”, the “RIPK1 kinase activity (MBP phosphorylation)” value at recombinant RIPK1 is “inhibiting RIPK1 kinase activity”. Moreover, the EC50 amounted to 873 nM with HT-29 cells [2] (TSZ treatment, read-out: EC50 (necroptosis block)) and 254 nM in assay [1] (10 ng/ml TNF-α overnight). For the same molecule, in the assay with HT-29 cells [2], the “rescue of TSZ-induced necroptotic cell death” value is given as “rescued”. Moreover, the “block of cell death driven by MLKL S358D expression” value in the assay on HT-29 MLKL S358D cells was “did not block MLKL S358D-driven necroptosis”. Moreover, the “rescue of cell viability in drug screen” value in assay [1] (0.5 and 1.5 μM, 10 ng/ml TNF-α overnight) is on record as “robustly rescued cell viability at both concentrations”. Moreover, in the assay on Jurkat E6.1 cells, the “inhibition of apoptotic cell death triggered by FasL” value was “none of the drugs inhibited apoptotic cell death”. For the same molecule, the “block of TRAIL-induced cell death” value with HT-29 cells [3] (200 ng/ml TRAIL + 500 nM Smac mimetic + 20 μM z-VAD) was “similarly blocked”. Besides, the “block of FasL-induced necroptotic cell death” value with HT-29 cells [3] (200 ng/ml human FasL + 500 nM Smac mimetic + 20 μM z-VAD) is “similarly blocked”. In addition, the “block of necroptotic cell death” value with 3T3-SA cells is given as “capable of blocking necroptotic cell death with comparable potency”.

On to `Cc1nc(Nc2ncc(C(=O)Nc3c(C)cccc3Cl)s2)cc(N2CCN(CCO)CC2)n1` [dasatinib], for which the “rescue of TSZ-induced necroptotic cell death” value with HT-29 cells [2] was “neither of the other four BCR-ABL inhibitors nor vandetanib did”. The “RIPK3 kinase activity (MBP phosphorylation)” value on RIPK3 (50 μM ATP, Figure 4e inhibitors at 10 μM) is on record as “interfered with RIPK3 activity”. The “prevention of necroptotic cell death” value in assay [1] (10 ng/ml TNF-α overnight) is “showed a modest effect but only at drug concentrations high enough to induce toxicity”.

As to `COc1cc2c(Nc3ccc(Br)cc3F)ncnc2cc1OCC1CCN(C)CC1` [vandetanib], the “rescue of TSZ-induced necroptotic cell death” value in the assay with HT-29 cells [2] is recorded as “neither of the other four BCR-ABL inhibitors nor vandetanib did”. For the same molecule, in assay [1] (10 ng/ml TNF-α overnight), the “prevention of necroptotic cell death” value is “did not confer protection”.

Take `COc1cc(Nc2c(C#N)cnc3cc(OCCCN4CCN(C)CC4)c(OC)cc23)c(Cl)cc1Cl` [bosutinib]: the “rescue of TSZ-induced necroptotic cell death” value in the assay with HT-29 cells [2] is “neither of the other four BCR-ABL inhibitors nor vandetanib did”. Besides, in assay [1] (10 ng/ml TNF-α overnight), the “prevention of necroptotic cell death” value was “none of the other drugs prevented necroptotic cell death”.

In the case of `COc1cc(O)c2c(c1)/C=C/C[C@H](O)[C@H](O)C(=O)/C=C\C[C@H](C)OC2=O` [TAK1 inhibitor], the protection to necroptosis result in assay [1] (Supplementary Figures 6b, c) is on record as “not able to confer protection to necroptosis”.
